Assay results: patent US7923450B2, “Modulators for amyloid beta” (Hoffmann-La Roche Inc., priority 2008, dated 2011)

Key:
γ-secretase = experiment: Cellular γ-secretase assay (Aβ42 secretion); assay type: cell-based; conditions: inhibition of Aβ42 secretion; human neuroglioma H4 cells overexpressing human APP; 22 hrs incubation; read-out: EC50 in vitro
Method: Cellular γ-Secretase Assay
Human neuroglioma H4 cells overexpressing human APP were plated at 30,000 cells/well/200 μl in 96-well plates in IMDM media containing 10% FCS, 0.2 mg/l Hygromycin B and incubated for 2 h at 37° C., 5% CO2 prior to adding test compounds.
Compounds for testing were dissolved in 100% Me2SO yielding in a 10 mM stock solution. Typically 12 μl of these solutions were further diluted in 1000 μl of IMDM media (w/o FCS,). Sub sequential 1:1 dilutions gave a ten point dose response curve. 100 μl of each dilution was added to the cells in 96-well plates. Appropriate controls using vehicle only and reference compound were applied to this assay. The final concentration of Me2SO was 0.4%.
After incubation for 22 hrs at 37° C., 5% CO2, 50 μl supernatant was transferred into round-bottom 96-well polypropylene plates for detection of Aβ42. 50 μl assay buffer (50 mM Tris/Cl, pH 7.4, 60 mM NaCl, 0.5% BSA, 1% TWEEN 20) was added to the wells followed by the addition of 100 μl of detection antibody (ruthenylated Aβ42-specific antibody BAP15 0.0625 μg/mL in assay buffer). 50 μl of a premix of capture antibody (biotinylated 6E10 antibody, 1 μg/mL) and Steptavidin-coated magnetic beads (Dynal M-280, 0.125 mg/mL) were preincubated for 1 hr at room temperature before adding the assay plates. Assay plates were incubated on a shaker for 3 hrs at room temperature and finally read in the Bioveris M8 Analyser according to the manufacturer's instructions (Bioveris).
EC50 values for inhibition of Aβ42 secretion were calculated by nonlinear regression fit analysis using XLfit 4.0 software (IDBS).

Compound	EC50 (γ-secretase) [nM]	melting point [°C]
Cc1cn(-c2ccc(Nc3ncc4c(n3)C(c3ccc(F)cc3)CCC4)cc2F)cn1 (centres unmarked) [Example 60, [3-Fluoro-4-(4-methyl-imidazol-1-yl)-phenyl]-[8-(4-fluoro-phenyl)-5,6,7,8-tetrahydro-quinazolin-2-yl]-amine]	500	201 to 203
Cc1cn(-c2ccc(Nc3nc4c(s3)CCCC4c3ccccc3Cl)cc2F)cn1 (centres unmarked) [Example 33, [4-(2-Chloro-phenyl)-4,5,6,7-tetrahydro-benzothiazol-2-yl]-[3-fluoro-4-(4-methyl-imidazol-1-yl)-phenyl]-amine]	430	204 to 206
Cc1cn(-c2ccc(Nc3nc4c(s3)CCCC4c3ccc(C)c(C(F)(F)F)c3)cc2F)cn1 (centres unmarked) [Example 32, [3-Fluoro-4-(4-methyl-imidazol-1-yl)-phenyl]-[4-(4-methyl-3-trifluoromethyl-phenyl)-4,5,6,7-tetrahydro-benzothiazol-2-yl]-amine]	260	160 to 163
COc1cc(Nc2ncc3c(n2)C(c2ccc(Cl)cc2)CCC3)ccc1-n1cnc(C)c1 (centres unmarked) [Example 50, [8-(4-Chloro-phenyl)-5,6,7,8-tetrahydro-quinazolin-2-yl]-[3-methoxy-4-(4-methyl-imidazol-1-yl)-phenyl]-amine]	380	210 to 212
COc1cc(Nc2nc3c(s2)CCCC3(C)c2ccccc2)ccc1-n1cnc(C)c1 (centres unmarked) [Example 30, [3-Methoxy-4-(4-methyl-imidazol-1-yl)-phenyl]-(4-methyl-4-phenyl-4,5,6,7-tetrahydro-benzothiazol-2-yl)-amine]	300	123 to 126
Cc1cn(-c2ccc(Nc3nc4c(s3)CCCC4c3ccc(Cl)cc3Cl)cc2F)cn1 (centres unmarked) [Example 36, [4-(2,4-Dichloro-phenyl)-4,5,6,7-tetrahydro-benzothiazol-2-yl]-[3-fluoro-4-(4-methyl-imidazol-1-yl)-phenyl]-amine]	460	136 to 139
COc1ccccc1C1CCCc2sc(Nc3ccc(-n4cnc(C)c4)c(F)c3)nc21 (centres unmarked) [Example 35, [3-Fluoro-4-(4-methyl-imidazol-1-yl)-phenyl]-[4-(2-methoxy-phenyl)-4,5,6,7-tetrahydro-benzothiazol-2-yl]-amine]	340	227 to 230
